Like-named read-outs stand apart in the source and are kept apart here.

This assay concerns HIV-1 (H9/IIB strain). The experiment in a line: Multiple Round HIV-1 Infection Assay (Viking Assay) in MT4-GFP cells. The class given is cell-based. The settings on record: inhibition of reproductive ratio R0. The procedure:
Assessing antiviral potency in a Multiple Round HIV-1 Infection Assay (Viking Assay) The antiviral activity of the tenofovir prodrugs of the Examples herein was assessed in an assay that measures the rate of replication of HIV in cell culture, termed the Viking assay (VIral KINetics in Green cells) and performed as follows. HIV-1 replication was monitored using MT4-gag-GFP clone D3 (hereafter designated MT4-GFP), which are MT-4 cells modified to harbor a GFP reporter gene, the expression of which is dependent on the HIV-1 expressed proteins tat and rev. Productive infection of an MT4-GFP cell with HIV-1 results in GFP expression approximately 24 h post-infection. MT4-GFP cells were maintained at 37° C./5% CO2/90% relative humidity in RPMI 1640 supplemented with 10/o fetal bovine serum, 100 U/ml penicillin/streptomycin, and 400 μg/ml G418 to maintain the reporter gene. For infections, MT4-GFP cells were placed in the same medium lacking G418 and infected overnight with HIV-1 (H9/IIB strain) virus at an approximate multiplicity of infection of 0.01 in the same incubation conditions. Cells were then washed and re-suspended in either RPMI 1640 supplemented with 10% or 50% normal human serum (NHS) at 1.6×10^5 cells/mL (10% NHS or 50% NHS, respectively). Compound plates were prepared by dispensing compounds dissolved in DMSO into wells of 384 well poly-D-lysine-coated plates (0.2 μl/well) using an ECHO acoustic dispenser. Each compound was tested in a 10-point serial 3-fold dilution (typical final concentrations: 8.4 μM-0.42 nM). Controls included no inhibitor (DMSO only) and a combination of three antiviral agents (efavirenz, indinavir, an in-house integrase strand transfer inhibitor at final concentrations of 4 μM each). Cells were added (50 μL/well) to compound plates and the infected cells were maintained at 37° C./5% CO2/90% relative humidity.
Infected cells were quantified at two time points, ˜48 h and ˜72 h post-infection, by counting the number of green cells in each well using an Acumen eX3 scanner. The increase in the number of green cells over ˜24 h period gives the reproductive ratio, R0, which is typically 5-15 and has been shown experimentally to be in logarithmic phase (data not shown). Inhibition of R0 is calculated for each well, and IC50s determined by non-linear 4-parameter curve fitting.

Setting [1] is: MT4-GFP cells infected with HIV-1, 10% normal human serum, read-out: Viking, IC50 (10% NHS).
Setting [2] is: MT4-GFP cells infected with HIV-1, 50% normal human serum, read-out: Viking, IC50 (50% NHS).

Regarding `CCCOC(=O)C(C)(C)NP(=O)(CO[C@H](C)Cn1cnc2c(N)ncnc21)N[C@H](C)c1ccc(C(F)(F)F)cc1` (stereo partly drawn) [Example 12A, propyl 2-(((R)-((((R)-1-(6-amino-9H-purin-9-yl)propan-2-yl)oxy)methyl)(((R)-1-(4-(trifluoromethyl)phenyl)ethyl)amino)phos-phoryl)amino)-2-methylpropanoate and propyl 2-(((S)-((((R)-1-(6-amino-9H-purin-9-yl)propan-2-yl)oxy)methyl)(((R)-1-(4-(trifluoromethyl)phenyl)ethyl)amino)phos-phoryl)amino)-2-methylpropanoate], the IC50 was found to be 96 nM under setting [1] and 680 nM under setting [2].

In the case of `CCCOC(=O)C(C)(C)NP(=O)(CO[C@H](C)Cn1cnc2c(N)ncnc21)N[C@@H](C)c1ccc(Cl)cc1` (stereo partly drawn) [Example 13B, propyl 2-(((R)-((((R)-1-(6-amino-9H-purin-9-yl)propan-2-yl)oxy)methyl)(((S)-1-(4-chlorophenyl)ethyl)amino)phosphoryl)ami-no)-2-methylpropanoate and propyl 2-(((S)-((((R)-1-(6-amino-9H-purin-9-yl)propan-2-yl)oxy)methyl)(((S)-1-(4-chlorophenyl)ethyl)amino)phosphoryl)ami-no)-2-methylpropanoate], the IC50 came out at 73 nM under setting [1] and 310 nM under setting [2].

Regarding `CCCOC(=O)C(C)(C)N[P@@](=O)(CO[C@H](C)Cn1cnc2c(N)ncnc21)N[C@@H](C)c1ccc(OC)cc1` [Example 14A, propyl 2-(((R)-((((R)-1-(6-amino-9H-purin-9-yl)propan-2-yl)oxy)methyl)(((S)-1-(4-methoxyphenyl)ethyl)amino)phosphoryl)a-mino)-2-methylpropanoate and propyl 2-(((S)-((((R)-1-(6-amino-9H-purin-9-yl)propan-2-yl)oxy)methyl)(((S)-1-(4-methoxyphenyl)ethyl)amino)phosphoryl)a-mino)-2-methylpropanoate], the half-inhibitory concentration (IC50) reads like this: under setting [1], 25 nM; under setting [2], 140 nM.

As for `CCCOC(=O)C(C)(C)N[P@@](=O)(CO[C@H](C)Cn1cnc2c(N)ncnc21)N[C@@H](C)c1ccc(OC)cc1` [Example 14B, propyl 2-(((R)-((((R)-1-(6-amino-9H-purin-9-yl)propan-2-yl)oxy)methyl)(((S)-1-(4-methoxyphenyl)ethyl)amino)phosphoryl)a-mino)-2-methylpropanoate and propyl 2-(((S)-((((R)-1-(6-amino-9H-purin-9-yl)propan-2-yl)oxy)methyl)(((S)-1-(4-methoxyphenyl)ethyl)amino)phosphoryl)a-mino)-2-methylpropanoate], the IC50 reads like this: under setting [1], 52 nM; under setting [2], 280 nM.

For `CCCOC(=O)C(C)(C)N[P@@](=O)(CO[C@H](C)Cn1cnc2c(N)ncnc21)N[C@H](C)c1ccc(OC)cc1` [Example 15A, propyl 2-(((R)-((((R)-1-(6-amino-9H-purin-9-yl)propan-2-yl)oxy)methyl)(((R)-1-(4-methoxyphenyl)ethyl)amino)phosphoryl)a-mino)-2-methylpropanoate and propyl 2-(((S)-((((R)-1-(6-amino-9H-purin-9-yl)propan-2-yl)oxy)methyl)(((R)-1-(4-methoxyphenyl)ethyl)amino)phosphoryl)a-mino)-2-methylpropanoate], the IC50 runs as follows: under setting [1], 74 nM; under setting [2], 410 nM.

Take `CCCOC(=O)C(C)(C)N[P@@](=O)(CO[C@H](C)Cn1cnc2c(N)ncnc21)N[C@H](C)c1ccc(OC)cc1` [Example 15B, propyl 2-(((R)-((((R)-1-(6-amino-9H-purin-9-yl)propan-2-yl)oxy)methyl)(((R)-1-(4-methoxyphenyl)ethyl)amino)phosphoryl)a-mino)-2-methylpropanoate and propyl 2-(((S)-((((R)-1-(6-amino-9H-purin-9-yl)propan-2-yl)oxy)methyl)(((R)-1-(4-methoxyphenyl)ethyl)amino)phosphoryl)a-mino)-2-methylpropanoate]: the IC50 is 7.4 nM under setting [1] and 40 nM under setting [2].

Take `CCCOC(=O)C(C)(C)N[P@@](=O)(CO[C@H](C)Cn1cnc2c(N)ncnc21)N[C@@H](C)c1ccccc1OC` [Example 17A, propyl 2-(((R)-((((R)-1-(6-amino-9H-purin-9-yl)propan-2-yl)oxy)methyl)(((S)-1-(2-methoxyphenyl)ethyl)amino)phosphoryl)a-mino)-2-methylpropanoate and propyl 2-(((S)-((((R)-1-(6-amino-9H-purin-9-yl)propan-2-yl)oxy)methyl)(((S)-1-(2-methoxyphenyl)ethyl)amino)phosphoryl)a-mino)-2-methylpropanoate]: the IC50 runs as follows: under setting [1], 24 nM; under setting [2], 310 nM.

For `CCCOC(=O)C(C)(C)N[P@@](=O)(CO[C@H](C)Cn1cnc2c(N)ncnc21)N[C@@H](C)c1ccccc1OC` [Example 17B, propyl 2-(((R)-((((R)-1-(6-amino-9H-purin-9-yl)propan-2-yl)oxy)methyl)(((S)-1-(2-methoxyphenyl)ethyl)amino)phosphoryl)a-mino)-2-methylpropanoate and propyl 2-(((S)-((((R)-1-(6-amino-9H-purin-9-yl)propan-2-yl)oxy)methyl)(((S)-1-(2-methoxyphenyl)ethyl)amino)phosphoryl)a-mino)-2-methylpropanoate], the IC50 by setting is: under setting [1], 84 nM; under setting [2], 510 nM.

`CCCOC(=O)C(C)(C)NP(=O)(CO[C@H](C)Cn1cnc2c(N)ncnc21)N[C@@H](C)c1ccc(OC(F)(F)F)cc1` (stereo partly drawn) [Example 19B, propyl 2-(((R)-((((R)-1-(6-amino-9H-purin-9-yl)propan-2-yl)oxy)methyl)(((S)-1-(4-(trifluoromethoxy)phenyl)ethyl)amino)phos-phoryl)amino)-2-methylpropanoate and propyl 2-(((S)-((((R)-1-(6-amino-9H-purin-9-yl)propan-2-yl)oxy)methyl)(((S)-1-(4-(trifluoromethoxy)phenyl)ethyl)amino)phos-phoryl)amino)-2-methylpropanoate]: the IC50 by setting is: under setting [1], 84 nM; under setting [2], 360 nM.

With `CCCOC(=O)C(C)(C)NP(=O)(CO[C@H](C)Cn1cnc2c(N)ncnc21)N[C@H](C)c1ccccc1OC` (stereo partly drawn) [Example 20A, propyl 2-(((R)-((((R)-1-(6-amino-9H-purin-9-yl)propan-2-yl)oxy)methyl)(((R)-1-(2-methoxyphenyl)ethyl)amino)phosphoryl)a-mino)-2-methylpropanoate and propyl 2-(((S)-((((R)-1-(6-amino-9H-purin-9-yl)propan-2-yl)oxy)methyl)(((R)-1-(2-methoxyphenyl)ethyl)amino)phosphoryl)a-mino)-2-methylpropanoate], the IC50 under setting [1] amounted to 61 nM and the IC50 under setting [2] worked out at 590 nM.

For `CCCOC(=O)C(C)(C)NP(=O)(CO[C@H](C)Cn1cnc2c(N)ncnc21)N[C@H](C)c1ccccc1OC` (stereo partly drawn) [Example 20B, propyl 2-(((R)-((((R)-1-(6-amino-9H-purin-9-yl)propan-2-yl)oxy)methyl)(((R)-1-(2-methoxyphenyl)ethyl)amino)phosphoryl)a-mino)-2-methylpropanoate and propyl 2-(((S)-((((R)-1-(6-amino-9H-purin-9-yl)propan-2-yl)oxy)methyl)(((R)-1-(2-methoxyphenyl)ethyl)amino)phosphoryl)a-mino)-2-methylpropanoate], the IC50 runs as follows: under setting [1], 9.5 nM; under setting [2], 53 nM.

As for `CCCOC(=O)C(C)(C)NP(=O)(CO[C@H](C)Cn1cnc2c(N)ncnc21)N[C@H](C)c1ccc(OC(F)(F)F)cc1C` (stereo partly drawn) [Example 21A, Propyl 2-(((R)-((((R)-1-(6-amino-9H-purin-9-yl)propan-2-yl)oxy)methyl)(((R)-1-(2-methyl-4-(trifluoromethoxy)phenyl)ethyl)amino)phos-phoryl)amino)-2-methylpropanoate and propyl 2-(((S)-((((R)-1-(6-amino-9H-purin-9-yl)propan-2-yl)oxy)methyl)(((R)-1-(2-methyl-4-(trifluoromethoxy)phenyl)ethyl)amino)phos-phoryl)amino)-2-methylpropanoate], the IC50 is, setting by setting: under setting [1], 150 nM; under setting [2], 800 nM.

Values taken from patent publication US11123355B2, “Antiviral benzyl-amine phosphodiamide compounds” (Merck Sharp & Dohme Corp., priority 2016, dated 2021).
